Source: patent US9902696B2, “1,4-substituted piperidine derivatives” (Cephalon, Inc., priority 2015, dated 2018)
Where a name gives a salt, the structure may show the parent alone.

Target: T1, recombinant human baculovirus-expressed GST-tagged FASN (Homo sapiens, UniProt P49327)
T1 construct: GST
Test: FASN enzyme activity assay, fluorescence-based detection of CoA with CPM
Assay type: biochemical
Settings: 5 nM FASN, 150 μM NADPH, 10 μM acetyl-CoA, 25 μM malonyl-CoA, 90 minutes incubation; read-out: IC50 data for Compounds of Formulae I-V/V(a): Activity
In short: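 Human GST-tagged FASN, baculovirus-expressed (5 nM), in 50 mM HEPES pH 7.5 with 150 μM NADPH, 10 μM acetyl-CoA, 25 μM malonyl-CoA, 0.5% DMSO; malonyl-CoA-started, 90 min. Released CoA detected with CPM (50 μM dilution), 30 min, fluorescence ex 390/em 530. IC50 from variable-slope sigmoidal fit of % inhibition versus log concentration.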

T1 sequence (P49327 whole entry): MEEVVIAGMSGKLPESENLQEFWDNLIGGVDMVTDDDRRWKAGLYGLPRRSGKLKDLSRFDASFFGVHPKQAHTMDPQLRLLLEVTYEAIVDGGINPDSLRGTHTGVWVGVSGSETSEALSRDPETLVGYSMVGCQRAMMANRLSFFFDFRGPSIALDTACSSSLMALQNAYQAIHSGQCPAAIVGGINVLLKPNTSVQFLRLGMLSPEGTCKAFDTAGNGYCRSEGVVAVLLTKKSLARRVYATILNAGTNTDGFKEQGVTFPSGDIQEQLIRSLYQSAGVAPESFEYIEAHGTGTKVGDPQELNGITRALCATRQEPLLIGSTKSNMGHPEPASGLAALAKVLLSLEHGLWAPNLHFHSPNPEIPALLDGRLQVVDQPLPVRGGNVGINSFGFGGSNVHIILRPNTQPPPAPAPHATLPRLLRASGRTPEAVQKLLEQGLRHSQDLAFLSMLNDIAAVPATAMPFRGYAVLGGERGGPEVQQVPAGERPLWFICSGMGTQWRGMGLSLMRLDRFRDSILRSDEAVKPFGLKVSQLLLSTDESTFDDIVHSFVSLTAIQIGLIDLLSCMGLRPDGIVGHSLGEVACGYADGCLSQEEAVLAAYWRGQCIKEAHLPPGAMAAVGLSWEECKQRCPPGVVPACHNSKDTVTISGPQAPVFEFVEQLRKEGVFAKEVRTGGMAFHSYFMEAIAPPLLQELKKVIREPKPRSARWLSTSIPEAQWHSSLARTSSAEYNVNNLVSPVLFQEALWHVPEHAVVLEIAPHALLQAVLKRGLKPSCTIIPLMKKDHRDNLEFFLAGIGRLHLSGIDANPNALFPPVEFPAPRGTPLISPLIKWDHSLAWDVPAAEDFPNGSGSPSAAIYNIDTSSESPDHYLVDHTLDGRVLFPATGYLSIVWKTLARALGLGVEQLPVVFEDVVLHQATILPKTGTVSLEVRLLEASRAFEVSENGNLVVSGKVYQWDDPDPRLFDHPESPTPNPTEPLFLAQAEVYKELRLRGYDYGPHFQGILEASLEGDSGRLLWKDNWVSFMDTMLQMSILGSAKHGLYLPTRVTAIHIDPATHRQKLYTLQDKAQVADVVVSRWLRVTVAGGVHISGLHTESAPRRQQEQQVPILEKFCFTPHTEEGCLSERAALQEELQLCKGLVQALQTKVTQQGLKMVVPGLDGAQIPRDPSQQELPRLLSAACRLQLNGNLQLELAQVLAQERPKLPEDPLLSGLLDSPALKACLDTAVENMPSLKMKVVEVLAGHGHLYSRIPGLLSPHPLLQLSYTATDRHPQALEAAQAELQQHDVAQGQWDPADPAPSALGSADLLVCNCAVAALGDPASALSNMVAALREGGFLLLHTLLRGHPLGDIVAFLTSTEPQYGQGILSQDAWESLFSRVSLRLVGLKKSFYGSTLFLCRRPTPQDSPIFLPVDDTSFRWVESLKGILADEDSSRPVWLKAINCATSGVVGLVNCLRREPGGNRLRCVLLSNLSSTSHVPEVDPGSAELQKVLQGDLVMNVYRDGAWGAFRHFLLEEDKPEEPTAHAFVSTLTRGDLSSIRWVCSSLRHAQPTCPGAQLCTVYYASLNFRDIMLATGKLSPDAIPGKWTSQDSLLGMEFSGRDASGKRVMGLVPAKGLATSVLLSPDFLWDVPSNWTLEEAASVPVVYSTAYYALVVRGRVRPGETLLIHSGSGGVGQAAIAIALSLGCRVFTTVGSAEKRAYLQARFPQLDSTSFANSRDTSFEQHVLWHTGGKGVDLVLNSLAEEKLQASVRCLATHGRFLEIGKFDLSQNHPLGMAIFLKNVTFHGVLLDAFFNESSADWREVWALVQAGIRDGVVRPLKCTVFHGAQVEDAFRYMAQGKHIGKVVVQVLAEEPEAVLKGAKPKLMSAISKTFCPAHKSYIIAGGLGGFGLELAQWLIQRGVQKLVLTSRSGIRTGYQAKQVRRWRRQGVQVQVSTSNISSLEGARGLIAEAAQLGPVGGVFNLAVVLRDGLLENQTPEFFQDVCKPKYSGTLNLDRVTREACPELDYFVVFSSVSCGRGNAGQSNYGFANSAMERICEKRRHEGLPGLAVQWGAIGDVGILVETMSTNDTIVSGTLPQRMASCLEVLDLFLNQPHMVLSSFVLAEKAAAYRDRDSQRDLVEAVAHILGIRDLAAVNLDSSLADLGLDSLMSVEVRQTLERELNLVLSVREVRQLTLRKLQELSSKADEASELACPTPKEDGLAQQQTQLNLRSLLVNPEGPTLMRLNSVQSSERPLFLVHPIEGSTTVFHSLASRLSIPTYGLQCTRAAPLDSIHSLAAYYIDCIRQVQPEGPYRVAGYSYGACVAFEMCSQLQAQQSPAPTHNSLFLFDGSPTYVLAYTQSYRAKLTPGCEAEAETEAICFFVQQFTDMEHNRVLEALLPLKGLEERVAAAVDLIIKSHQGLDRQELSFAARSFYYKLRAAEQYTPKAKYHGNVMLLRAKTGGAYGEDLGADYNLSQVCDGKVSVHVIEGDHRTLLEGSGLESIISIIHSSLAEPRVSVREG

IC50 [nM] | SMILES
100 to 999 | Cc1c(-c2ccc(OC3CCN(C(=O)C4(O)CC4)CC3)cc2)ccc2ncnn12 [Example 312, (1-Hydroxycyclopropyl)-{4-[4-(5-methyl-[1,2,4]triazolo[1,5-a]pyridin-6-yl)-phenoxy]-piperidin-1-yl}-methanone]
1000 to 10000 | CCC(=O)N1CCC(Oc2ccc(-c3ccc4ncnn4c3C)cc2)CC1 [Example 313, 1-{4-[4-(5-Methyl-[1,2,4]triazolo[1,5-a]pyridin-6-yl)-phenoxy]-piperidin-1-yl}-propan-1-one]
1000 to 10000 | Cc1c(-c2ccc(OC3CCN(C(=O)C4CC4)CC3)cc2)ccc2ncnn12 [Example 314, Cyclopropyl-{4-[4-(5-methyl-[1,2,4]triazolo[1,5-a]pyridin-6-yl)-phenoxy]-piperidin-1-yl}-methanone]
1000 to 10000 | Cc1c(-c2ccc(OC3CCN(C(=O)C4(C(F)(F)F)CC4)CC3)cc2)ccc2cccnc12 [Example 315, {4-[4-(8-Methylquinolin-7-yl)-phenoxy]-piperidin-1-yl}-(1-trifluoro-methylcyclopropyl)-methanone]
1 to 99 | Cc1c(-c2ccc(OC3CCN(C(=O)C4(N)CC4)CC3)cc2)ccc2cccnc12 [Example 316, (1-Aminocyclopropyl)-{4-[4-(8-methyl-quinolin-7-yl)-phenoxy]-piperidin-1-yl}-methanone]
1 to 99 | Cn1ncc2ccc(-c3ccc(OC4CCN(C(=O)[C@H]5CCCO5)CC4)cc3)cc21 [Example 317, {4-[4-(1-Methyl-1H-indazol-6-yl)-phenoxy]-piperidin-1-yl}-(R)-tetrahydrofuran-2-yl-methanone; compound with trifluoroacetic acid]
1 to 99 | O=C([C@H]1CCCO1)N1CCC(Oc2ccc(-c3ccc4nccn4c3)cc2)CC1 [Example 318, [4-(4-Imidazo[1,2-a]pyridin-6-yl-phenoxy)-piperidin-1-yl]-(R)-tetrahydro-furan-2-yl-methanone; compound with trifluoroacetic acid]
1000 to 10000 | Cc1c(-c2ccc(OC3CCN(C(=O)C4(C#N)CC4)CC3)cc2)ccc2cccnc12 [Example 319, 1-{4-[4-(8-Methylquinolin-7-yl)-phenoxy]-piperidine-1-carbonyl}-cyclopropanecarbonitrile]
1 to 99 | Cc1c(-c2ccc(OC3CCN(C(=O)C4(C)CC4)CC3)cc2)ccc2cccnc12 [Example 320, (1-Methylcyclopropyl)-{4-[4-(8-methyl-quinolin-7-yl)-phenoxy]-piperidin-1-yl}-methanone]
100 to 999 | Cc1c(-c2ccc(OC3CCN(C(=O)[C@H]4CC4(C)C)CC3)cc2)ccc2cccnc12 [Example 321, ((S)-2,2-Dimethylcyclopropyl)-{4-[4-(8-methyl-quinolin-7-yl)-phenoxy]-piperidin-1-yl}-methanone]
1 to 99 | Cc1c(-c2ccc(OC3CCN(C(=O)C4CC4(C)C)CC3)cc2)ccc2cccnc12 (stereo not shown) [Example 322, (2,2-Dimethylcyclopropyl)-{4-[4-(8-methyl-quinolin-7-yl)-phenoxy]-piperidin-1-yl}-methanone]
1000 to 10000 | CN1CCN(c2c(-c3ccc(OC4CCN(C(=O)[C@H]5CCCO5)CC4)cc3)ccc3cccnc23)CC1 [Example 323, [4-[4-[8-(4-Methylpiperazin-1-yl)-7-quinolyl]phenoxy]-1-piperidyl]-[(2R)-tetrahydrofuran-2-yl]methanone]
1 to 99 | Nc1c(-c2ccc(OC3CCN(C(=O)[C@H]4CCCO4)CC3)cc2)ccc2cccnc12 [Example 324, [4-[4-(8-Amino-7-quinolyl)phenoxy]-1-piperidyl]-[(2R)-tetrahydrofuran-2-yl]methanone]
1 to 99 | CNc1c(-c2ccc(OC3CCN(C(=O)[C@H]4CCCO4)CC3)cc2)ccc2cccnc12 [Example 325, {4-[4-(8-Methylaminoquinolin-7-yl)-phenoxy]-piperidin-1-yl}-(R)-tetrahydrofuran-2-yl-methanone]
100 to 999 | CCC(=O)N1CCC(Oc2ccc(-c3ccc4cccnc4c3NC)cc2)CC1 [Example 326, 1-{4-[4-(8-Methylaminoquinolin-7-yl)-phenoxy]-piperidin-1-yl}-propan-1-one]
1 to 99 | COCCNc1c(-c2ccc(OC3CCN(C(=O)[C@H]4CCCO4)CC3)cc2)ccc2cccnc12 [Example 327, (4-{4-[8-(2-Methoxyethylamino)-quinolin-7-yl]-phenoxy}-piperidin-1-yl)-(R)-tetrahydrofuran-2-yl-methanone]
100 to 999 | CCC(=O)N1CCC(Oc2ccc(-c3ccc4cccnc4c3NCCOC)cc2)CC1 [Example 328, 1-(4-{4-[8-(2-Methoxyethylamino)-quinolin-7-yl]-phenoxy}-piperidin-1-yl)-propan-1-one]
1 to 99 | CN(C)CCNc1c(-c2ccc(OC3CCN(C(=O)[C@H]4CCCO4)CC3)cc2)ccc2cccnc12 [Example 329, (4-{4-[8-(2-Dimethylaminoethylamino)-quinolin-7-yl]-phenoxy}-piperidin-1-yl)-(R)tetrahydrofuran-2-yl-methanone]
100 to 999 | CCC(=O)N1CCC(Oc2ccc(-c3ccc4cccnc4c3C#N)cc2)CC1 [Example 330, 7-[4-(1-Propionyl-piperidin-4-yloxy)-phenyl]-quinoline-8-carbonitrile]

IC50 [nM] | SMILES
1 to 99 | CN(C)c1c(-c2ccc(OC3CCN(C(=O)[C@H]4CCCO4)CC3)cc2)ccc2cccnc12 [Example 331, [4-[4-[8-(Dimethylamino)-7-quinolyl]phenoxy]-1-piperidyl]-[(2R)-tetrahydro-furan-2-yl]methanone]
1000 to 10000 | CCC(=O)N1CCC(Oc2ccc(-c3ccc4cccnc4c3N(C)C)cc2)CC1 [Example 332, 1-{4-[4-(8-Dimethylaminoquinolin-7-yl)-phenoxy]-piperidin-1-yl}-propan-1-one]
1000 to 10000 | CN(C)c1c(-c2ccc(OC3CCN(C(=O)C4CC4)CC3)cc2)ccc2cccnc12 [Example 333, Cyclopropyl-{4-[4-(8-dimethylamino-quinolin-7-yl)-phenoxy]-piperidin-1-yl}-methanone]
100 to 999 | O=C([C@H]1CCCO1)N1CCC(Oc2ccc(-c3ccc4cccnc4c3NCCN3CCCC3)cc2)CC1 [Example 334, (4-{4-[8-(2-Pyrrolidin-1-yl-ethylamino)-quinolin-7-yl]-phenoxy}-piperidin-1-yl)-(R)-tetrahydrofuran-2-yl-methanone]
1000 to 10000 | CCC(=O)N1CCC(Oc2ccc(-c3ccc4cccnc4c3NCCN3CCCC3)cc2)CC1 [Example 335, 1-(4-{4-[8-(2-Pyrrolidin-1-yl-ethylamino)-quinolin-7-yl]-phenoxy}-piperidin-1-yl)-propan-1-one]
100 to 999 | NC(=O)c1c(-c2ccc(OC3CCN(C(=O)[C@H]4CCCO4)CC3)cc2)ccc2cccnc12 [Example 336, 7-[4-[[1-[(2R)-Tetrahydrofuran-2-carbonyl]-4 piperidyl]oxy]phenyl]quinoline-8-carboxamide]
1000 to 10000 | CCC(=O)N1CCC(Oc2ccc(-c3ccc4cccnc4c3C(N)=O)cc2)CC1 [Example 337, 7-[4-(1-Propionyl-piperidin-4-yloxy)-phenyl]-quinoline-8-carboxylic acid amide]
1000 to 10000 | CCC(=O)N1CC[C@H](Oc2ccc(-c3cnc4ccccc4c3)cc2)C1 [Example 343, (S)-1-(3-(4-(Quinolin-3-yl)phenoxy)pyrrolidin-1-yl)propan-1-one, HCl]
100 to 999 | CCC(=O)N1CC[C@@H](Oc2ccc(-c3ccc4cccnc4c3)cc2)C1 [Example 344, (R)-1-(3-(4-(Quinolin-7-yl)phenoxy)pyrrolidin-1-yl)propan-1-one, HCl]
1000 to 10000 | CCC(=O)N1CC[C@@H](Oc2ccc(-c3cnc4ccccc4c3)cc2)C1 [Example 345, (R)-1-(3-(4-(quinolin-3-yl)phenoxy)pyrrolidin-1-yl)propan-1-one, HCl]
100 to 999 | CCC(=O)N1CCC(Oc2ccc(-c3cc(C)c4cccnc4c3)cc2)CC1 [Example 346, 1-(4-(4-(5-Methylquinolin-7-yl)phenoxy)piperidin-1-yl)propan-1-one, HCl]
100 to 999 | Cc1cc(-c2ccc(OC3CCN(C(=O)C4CC4)CC3)cc2)cc2ncccc12 [Example 347, Cyclopropyl(4-(4-(5-methylquinolin-7-yl)phenoxy)piperidin-1-yl)methanone, HCl]
1 to 99 | CCC(=O)N1CCC(Oc2ccc(-c3cc(C)cc4ncccc34)cc2)CC1 [Example 348, 1-(4-(4-(7-methylquinolin-5-yl)phenoxy)piperidin-1-yl)propan-1-one HCl]
1 to 99 | Cc1cc(-c2ccc(OC3CCN(C(=O)C4CC4)CC3)cc2)c2cccnc2c1 [Example 349, Cyclopropyl-{4-[4-(7-methyl-quinolin-5-yl)-phenoxy]-piperidin-1-yl}-methanone, HCl]
100 to 999 | CCC(=O)N1CCC(Oc2ccc(-c3c(C)ccc4ncccc34)cc2)CC1 [Example 350, 1-(4-(4-(6-Methylquinolin-5-yl)phenoxy)piperidin-1-yl)propan-1-one HCl]
100 to 999 | Cc1ccc2ncccc2c1-c1ccc(OC2CCN(C(=O)C3CC3)CC2)cc1 [Example 351, Cyclopropyl(4-(4-(6-methylquinolin-5-yl)phenoxy)piperidin-1-yl)methanone, HCl]
1 to 99 | Cc1cc(-c2ccc(OC3CCN(C(=O)[C@H]4CCCO4)CC3)cc2)cc2ncccc12 [Example 352, (R)-(4-(4-(5-Methylquinolin-7-yl)phenoxy)piperidin-1-yl)(tetrahydrofuran-2-yl)methanone]
1 to 99 | Cc1cc(-c2ccc(OC3CCN(C(=O)[C@H]4CCCO4)CC3)cc2)c2cccnc2c1 [Example 353, (R)-(4-(4-(7-Methylquinolin-5-yl)phenoxy)piperidin-1-yl)(tetrahydrofuran-2-yl)methanone]
